Broadly, the IC50 is the midpoint of a concentration-inhibition curve.

Our source for the IC50 values is ChEMBL document CHEMBL3638769, “Inhibitors of STAT3” (2015).

Molecules are shown by their SMILES. Where only a bound is given, the exact number is not on record here.

The target of the assay is Signal transducer and activator of transcription 3 (Homo sapiens, UniProt P40763). Nature of the assay: EMSA Based Assay: A screening process evaluated in vitro disruption of STAT3(dimer)-DNA formation through a previously published EMSA based assays, giving a valuable insight into the inhibitor's mode of action against the STAT3 homo-dimer. Background: Mobility shift assays separate free from complexed probe on a gel.
Signal transducer and activator of transcription 3, sequence (P40763 whole entry): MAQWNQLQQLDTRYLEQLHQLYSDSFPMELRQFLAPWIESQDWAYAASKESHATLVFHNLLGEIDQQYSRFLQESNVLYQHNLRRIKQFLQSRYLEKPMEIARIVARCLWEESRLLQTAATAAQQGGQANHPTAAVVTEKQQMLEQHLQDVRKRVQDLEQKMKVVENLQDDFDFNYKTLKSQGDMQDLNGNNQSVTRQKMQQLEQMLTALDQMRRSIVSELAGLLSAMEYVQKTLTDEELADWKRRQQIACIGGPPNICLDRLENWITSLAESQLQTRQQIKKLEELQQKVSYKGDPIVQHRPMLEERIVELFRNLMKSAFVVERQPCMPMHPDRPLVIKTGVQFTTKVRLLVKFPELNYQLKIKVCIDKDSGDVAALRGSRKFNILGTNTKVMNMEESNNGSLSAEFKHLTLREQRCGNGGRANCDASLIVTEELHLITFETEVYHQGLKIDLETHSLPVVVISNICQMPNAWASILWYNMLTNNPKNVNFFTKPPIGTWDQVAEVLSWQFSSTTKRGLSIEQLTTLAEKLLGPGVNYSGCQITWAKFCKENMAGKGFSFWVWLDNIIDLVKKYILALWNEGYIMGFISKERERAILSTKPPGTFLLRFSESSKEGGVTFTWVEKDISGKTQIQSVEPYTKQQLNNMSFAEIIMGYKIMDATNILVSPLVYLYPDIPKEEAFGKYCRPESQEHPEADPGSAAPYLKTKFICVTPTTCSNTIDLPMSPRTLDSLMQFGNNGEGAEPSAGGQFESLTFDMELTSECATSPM

Compound `O=C(Nc1ccc(C2CCCCC2)cc1)c1nc(-c2cccc3ccccc23)sc1Cc1ccc(OP(=O)(O)O)cc1` displayed an IC50 of 350 µM.
To `O=C(Nc1ccc(C2CCCCC2)cc1)c1nc(-c2cccc3ccccc23)oc1Cc1ccc(OP(=O)(O)O)cc1` belongs 255 µM; to `O=C(Nc1ccc(C2CCCCC2)cc1)c1nc(-c2ccccc2)sc1Cc1ccc(OP(=O)(O)O)cc1`, 775 µM; to `O=C(Nc1ccc(C2CCCCC2)cc1)c1nc(-c2ccccc2)oc1Cc1ccc(OP(=O)(O)O)cc1`, 33 µM.
For `CCCCCCNC(=O)c1nc(-c2ccccc2)sc1Cc1ccc(OP(=O)(O)O)cc1` the value was 150 µM.
For the compound `O=C(Nc1ccc(C2CCCCC2)cc1)c1nc(-c2ccccc2)oc1Cc1ccc(O)cc1`, the IC50 is more than 1000 µM.
On to `CCCCCCNC(=O)c1nc(-c2cccc3ccccc23)oc1Cc1ccc(OP(=O)(O)O)cc1`, for which half-maximal inhibition (IC50) required 58 µM.
As to `O=C(O)c1nc(-c2ccccc2)oc1Cc1ccc(OP(=O)(O)O)cc1`, the IC50 is more than 1000 µM.
For `CCCCCCNC(=O)c1nc(-c2cccc3ccccc23)sc1Cc1ccc(OP(=O)(O)O)cc1` the value was 25 µM; for `CCCCCCNC(=O)c1nc(-c2ccccc2)oc1Cc1ccc(OP(=O)(O)O)cc1`, more than 1000 µM.
